{"source": "patent US11096389B2", "about": "“Alkanolamine sulfate water conditioners” (Indorama Ventures Oxides LLC, priority 2014, dated 2021)", "key": {"[1]": {"conditions": "TGA; mixture of water, dicamba-DGA and water conditioning agent at field-use concentrations", "from_the_text": "A comparison of the increase in auxin herbicide volatility in various water conditioning agents was done by preparing mixtures of water, herbicide (dicamba diglycolamine (DGA) salt in this case), and water conditioning agent. Concentration of the solutions mimics actual agricultural field-use concentrations. In this test, done using thermogravimetric analysis (TGA), a comparison was made between a control (dicamba-DGA alone) to dicamba-DGA plus a water conditioning agent."}, "corn": {"test_system": "corn", "assay": "Field trial, water conditioning effect with glyphosate, visual injury", "format": "in vivo", "conditions": "for % Control 2 Weeks Post Treatment, Mean / % Control 4 Weeks Post Treatment, Mean: mean of 3 plots; for % Control 2 Weeks Post Treatment / % Control 4 Weeks Post Treatment: single plots", "experimental": "(§1) A field trial was conducted to compare the efficacy of the herbicide glyphosate (diluted to less than its label use rate with distilled water or water containing 1000 ppm (calcium+magnesium)), with or without water conditioning agents of the present disclosure. In this trial, the glyphosate-containing spray was applied to flax, amaranth, sunflower and corn. The glyphosate used in this field trial was Touchdown® HT herbicide and its spray application rate was kept constant at 9.6 fl oz/a. A non-ionic surfactant (Activator 90 surfactant) was also applied with the herbicide at a constant spray application rate of 0.5% v/v. Finally, the water conditioning agents of the present disclosure, when present, were applied at spray application rates of 0.75% v/v and 1.0% v/v. Flax, amaranth, sunflower and corn, which had been plotted at various locations throughout the field, were spray treated and visually assessed on a particular day after treatment for injury on a scale of 0 to 100%, with zero representing “no” injury and 100% representing “complete” injury or death. The water conditioning agents tested during this trial included: […]"}, "flax": {"test_system": "flax", "assay": "Field trial, water conditioning effect with glyphosate, visual injury", "format": "in vivo", "conditions": "for % Control 2 Weeks Post Treatment, Mean / % Control 4 Weeks Post Treatment, Mean: mean of 3 plots; for % Control 2 Weeks Post Treatment / % Control 4 Weeks Post Treatment: single plots", "experimental": "as §1"}, "amaranth": {"test_system": "amaranth", "assay": "Field trial, water conditioning effect with glyphosate, visual injury", "format": "in vivo", "conditions": "for % Control 2 Weeks Post Treatment, Mean / % Control 4 Weeks Post Treatment, Mean: mean of 3 plots; for % Control 2 Weeks Post Treatment / % Control 4 Weeks Post Treatment: single plots", "experimental": "as §1"}, "sunflower": {"test_system": "sunflower", "assay": "Field trial, water conditioning effect with glyphosate, visual injury", "format": "in vivo", "conditions": "for % Control 2 Weeks Post Treatment, Mean / % Control 4 Weeks Post Treatment, Mean: mean of 3 plots; for % Control 2 Weeks Post Treatment / % Control 4 Weeks Post Treatment: single plots", "experimental": "as §1"}, "[2]": {"assay": "Compatibility with glyphosate herbicide solution", "format": "physicochemical", "conditions": "950 g water with 1000 ppm calcium, 30 g MEA sulfate solution, 20 g ROUNDUP ULTRA MAX", "experimental": "A mixture of 950 grams water containing 1000 ppm calcium, 30 grams of the MEA sulfate solution from Example 1, and 20 grams of ROUNDUP ULTRA® MAX herbicide (The Scotts Company LLC of Marysville, Ohio) was prepared."}, "[3]": {"conditions": "glyphosate in distilled water + non-ionic surfactant"}, "[4]": {"conditions": "glyphosate in hard water + non-ionic surfactant, no water conditioner"}, "[5]": {"conditions": "glyphosate in hard water + non-ionic surfactant + sulfate at 0.75% v/v"}, "[6]": {"conditions": "glyphosate in hard water + non-ionic surfactant + sulfate at 1.0% v/v"}}, "note": "“And” between values parts separate entries of the source, which are not always exact repeats. Equal entries are not always repeated."}
{"compound": "COc1c(Cl)ccc(Cl)c1C(=O)O", "note": "[Dicamba-DGA, 3,6-dichloro-2-methoxybenzoic acid]", "values": [{"measurement": "Relative Volatility", "setting": "[1]", "result": 0.01185}]}
{"compound": "O=C(O)CNCP(=O)(O)O", "note": "[Glyphosate, N-(phosphonomethyl) glycine, reference compound]", "values": [{"measurement": "% Control 2 Weeks Post Treatment, Mean", "setting": "corn; [3]", "result": 53.3, "unit": "%"}, {"measurement": "% Control 4 Weeks Post Treatment, Mean", "setting": "corn; [3]", "result": 56.7, "unit": "%"}, {"measurement": "% Control 2 Weeks Post Treatment", "setting": "corn; [3]", "result": "50% and 60%"}, {"measurement": "% Control 4 Weeks Post Treatment", "setting": "corn; [3]", "result": "55% and 60%"}, {"measurement": "% Control 2 Weeks Post Treatment, Mean", "setting": "corn; [4]", "result": 33.3, "unit": "%"}, {"measurement": "% Control 4 Weeks Post Treatment, Mean", "setting": "corn; [4]", "result": 33.3, "unit": "%"}, {"measurement": "% Control 2 Weeks Post Treatment", "setting": "corn; [4]", "result": "30% and 35%"}, {"measurement": "% Control 4 Weeks Post Treatment", "setting": "corn; [4]", "result": "30% and 35%"}, {"measurement": "% Control 2 Weeks Post Treatment, Mean", "setting": "flax; [3]", "result": 53.3, "unit": "%"}, {"measurement": "% Control 4 Weeks Post Treatment, Mean", "setting": "flax; [3]", "result": 56.7, "unit": "%"}, {"measurement": "% Control 2 Weeks Post Treatment", "setting": "flax; [3]", "result": "50% and 60%"}, {"measurement": "% Control 4 Weeks Post Treatment", "setting": "flax; [3]", "result": "55% and 60%"}, {"measurement": "% Control 2 Weeks Post Treatment, Mean", "setting": "flax; [4]", "result": 33.3, "unit": "%"}, {"measurement": "% Control 4 Weeks Post Treatment, Mean", "setting": "flax; [4]", "result": 33.3, "unit": "%"}, {"measurement": "% Control 2 Weeks Post Treatment", "setting": "flax; [4]", "result": "30% and 35%"}, {"measurement": "% Control 4 Weeks Post Treatment", "setting": "flax; [4]", "result": "30% and 35%"}, {"measurement": "% Control 2 Weeks Post Treatment, Mean", "setting": "amaranth; [3]", "result": 53.3, "unit": "%"}, {"measurement": "% Control 4 Weeks Post Treatment, Mean", "setting": "amaranth; [3]", "result": 56.7, "unit": "%"}, {"measurement": "% Control 2 Weeks Post Treatment", "setting": "amaranth; [3]", "result": "50% and 60%"}, {"measurement": "% Control 4 Weeks Post Treatment", "setting": "amaranth; [3]", "result": "55% and 60%"}, {"measurement": "% Control 2 Weeks Post Treatment, Mean", "setting": "amaranth; [4]", "result": 33.3, "unit": "%"}, {"measurement": "% Control 4 Weeks Post Treatment, Mean", "setting": "amaranth; [4]", "result": 33.3, "unit": "%"}, {"measurement": "% Control 2 Weeks Post Treatment", "setting": "amaranth; [4]", "result": "30% and 35%"}, {"measurement": "% Control 4 Weeks Post Treatment", "setting": "amaranth; [4]", "result": "30% and 35%"}, {"measurement": "% Control 2 Weeks Post Treatment, Mean", "setting": "sunflower; [3]", "result": 53.3, "unit": "%"}, {"measurement": "% Control 4 Weeks Post Treatment, Mean", "setting": "sunflower; [3]", "result": 56.7, "unit": "%"}, {"measurement": "% Control 2 Weeks Post Treatment", "setting": "sunflower; [3]", "result": "50% and 60%"}, {"measurement": "% Control 4 Weeks Post Treatment", "setting": "sunflower; [3]", "result": "55% and 60%"}, {"measurement": "% Control 2 Weeks Post Treatment, Mean", "setting": "sunflower; [4]", "result": 33.3, "unit": "%"}, {"measurement": "% Control 4 Weeks Post Treatment, Mean", "setting": "sunflower; [4]", "result": 33.3, "unit": "%"}, {"measurement": "% Control 2 Weeks Post Treatment", "setting": "sunflower; [4]", "result": "30% and 35%"}, {"measurement": "% Control 4 Weeks Post Treatment", "setting": "sunflower; [4]", "result": "30% and 35%"}]}
{"compound": "monoethanolamine sulfate [Sulfate 1]", "values": [{"measurement": "% Control 2 Weeks Post Treatment, Mean", "setting": "corn; [5]", "result": 68.7, "unit": "%"}, {"measurement": "% Control 4 Weeks Post Treatment, Mean", "setting": "corn; [5]", "result": 79.3, "unit": "%"}, {"measurement": "% Control 2 Weeks Post Treatment", "setting": "corn; [5]", "result": "68% and 70%"}, {"measurement": "% Control 4 Weeks Post Treatment", "setting": "corn; [5]", "result": "80% and 78%"}, {"measurement": "% Control 2 Weeks Post Treatment, Mean", "setting": "corn; [6]", "result": 77.7, "unit": "%"}, {"measurement": "% Control 4 Weeks Post Treatment, Mean", "setting": "corn; [6]", "result": 86, "unit": "%"}, {"measurement": "% Control 2 Weeks Post Treatment", "setting": "corn; [6]", "result": "80% and 75% and 78%"}, {"measurement": "% Control 4 Weeks Post Treatment", "setting": "corn; [6]", "result": "88% and 85%"}, {"measurement": "% Control 2 Weeks Post Treatment, Mean", "setting": "flax; [5]", "result": 51.7, "unit": "%"}, {"measurement": "% Control 4 Weeks Post Treatment, Mean", "setting": "flax; [5]", "result": 51.7, "unit": "%"}, {"measurement": "% Control 2 Weeks Post Treatment", "setting": "flax; [5]", "result": "45% and 50% and 60%"}, {"measurement": "% Control 4 Weeks Post Treatment", "setting": "flax; [5]", "result": "45% and 50% and 60%"}, {"measurement": "% Control 2 Weeks Post Treatment, Mean", "setting": "flax; [6]", "result": 48.3, "unit": "%"}, {"measurement": "% Control 4 Weeks Post Treatment, Mean", "setting": "flax; [6]", "result": 48.3, "unit": "%"}, {"measurement": "% Control 2 Weeks Post Treatment", "setting": "flax; [6]", "result": "55% and 45%"}, {"measurement": "% Control 4 Weeks Post Treatment", "setting": "flax; [6]", "result": "55% and 45%"}, {"measurement": "% Control 2 Weeks Post Treatment, Mean", "setting": "amaranth; [5]", "result": 72.7, "unit": "%"}, {"measurement": "% Control 4 Weeks Post Treatment, Mean", "setting": "amaranth; [5]", "result": 72.7, "unit": "%"}, {"measurement": "% Control 2 Weeks Post Treatment", "setting": "amaranth; [5]", "result": "75% and 68%"}, {"measurement": "% Control 4 Weeks Post Treatment", "setting": "amaranth; [5]", "result": "75% and 68%"}, {"measurement": "% Control 2 Weeks Post Treatment, Mean", "setting": "amaranth; [6]", "result": 81.7, "unit": "%"}, {"measurement": "% Control 4 Weeks Post Treatment, Mean", "setting": "amaranth; [6]", "result": 71.7, "unit": "%"}, {"measurement": "% Control 2 Weeks Post Treatment", "setting": "amaranth; [6]", "result": "80% and 85%"}, {"measurement": "% Control 4 Weeks Post Treatment", "setting": "amaranth; [6]", "result": "70% and 75%"}, {"measurement": "% Control 2 Weeks Post Treatment, Mean", "setting": "sunflower; [5]", "result": 71, "unit": "%"}, {"measurement": "% Control 4 Weeks Post Treatment, Mean", "setting": "sunflower; [5]", "result": 71, "unit": "%"}, {"measurement": "% Control 2 Weeks Post Treatment", "setting": "sunflower; [5]", "result": "70% and 75% and 68%"}, {"measurement": "% Control 4 Weeks Post Treatment", "setting": "sunflower; [5]", "result": "70% and 75% and 68%"}, {"measurement": "% Control 2 Weeks Post Treatment, Mean", "setting": "sunflower; [6]", "result": 85, "unit": "%"}, {"measurement": "% Control 4 Weeks Post Treatment, Mean", "setting": "sunflower; [6]", "result": 80, "unit": "%"}, {"measurement": "% Control 2 Weeks Post Treatment", "setting": "sunflower; [6]", "result": 85, "unit": "%"}, {"measurement": "% Control 4 Weeks Post Treatment", "setting": "sunflower; [6]", "result": 80, "unit": "%"}, {"measurement": "physical and chemical compatibility with glyphosate-containing formulation", "setting": "[2]", "result": "clear, homogenous solution"}]}
